In US20080085889A1, “Amidomethyl-Substituted 1-(Carboxyalkyl) Cyclopentyl-Carbonylamino-Benzazepine-N-Acetic Acid Compounds, Process and Intermediate Products for Their Preparation and Pharmaceutical Compositions Containing Them” (SOLVAY PHARMACEUTICALS GmbH, priority 2003, published 2008):

Columns and labels:
[1] = target: T1, His6-tagged hSEP ectodomain (Homo sapiens, UniProt Q495T6); assay: In vitro investigation of the hSEP-inhibitory action (fluorescence-quenched Big-ET-1 analogue, HPLC); format: biochemical
T1 construct: His6-tagged hSEP ectodomain; His6; purchased Innogenetics, Ghent, Belgium
T1 sequence (Q495T6 49-779 limits assumed): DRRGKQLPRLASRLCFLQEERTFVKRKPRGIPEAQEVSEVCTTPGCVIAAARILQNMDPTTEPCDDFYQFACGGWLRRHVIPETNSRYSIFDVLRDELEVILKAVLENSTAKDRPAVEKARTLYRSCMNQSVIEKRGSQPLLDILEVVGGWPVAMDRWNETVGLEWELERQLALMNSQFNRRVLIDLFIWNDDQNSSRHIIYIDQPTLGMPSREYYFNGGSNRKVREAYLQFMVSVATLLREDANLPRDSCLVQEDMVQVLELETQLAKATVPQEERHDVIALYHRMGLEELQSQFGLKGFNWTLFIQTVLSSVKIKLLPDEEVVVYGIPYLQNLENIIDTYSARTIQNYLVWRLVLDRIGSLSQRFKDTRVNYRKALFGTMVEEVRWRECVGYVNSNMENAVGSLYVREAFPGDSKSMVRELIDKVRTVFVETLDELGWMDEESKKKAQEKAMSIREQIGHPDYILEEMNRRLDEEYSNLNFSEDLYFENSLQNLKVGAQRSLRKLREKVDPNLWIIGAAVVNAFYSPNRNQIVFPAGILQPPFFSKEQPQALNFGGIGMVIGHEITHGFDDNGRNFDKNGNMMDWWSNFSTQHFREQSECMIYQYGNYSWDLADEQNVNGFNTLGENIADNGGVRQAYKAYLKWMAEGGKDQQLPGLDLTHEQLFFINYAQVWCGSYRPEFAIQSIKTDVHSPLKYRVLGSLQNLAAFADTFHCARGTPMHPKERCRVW
How it was run: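 Performed as for the NEP assay, with HPLC analysis and 10 nM phosphoramidon as the standard inhibitor. IC50 is the compound concentration blocking 50% of hSEP enzymatic activity.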

[2] = Plasma protein binding, equilibrium dialysis, rat plasma; format: in vitro ADME; details: rat plasma (10% for routine testing), 37° C., pH 7.4, 10% plasma (100% for low binders), read-out: % bound (rat plasma) (converted)
Description: (§1) Plasma protein binding of the test substances of Formula I was measured using a validated equilibrium dialysis method. The dialysis cells consisted of two halves separated by a semi-permeable membrane slightly tensioned in between. […] Before being used, the membranes were re-hydrated by soaking in water followed by the dialysis buffer. Plasma (10% for routine testing, and 100% for compounds found to have a low protein binding) was heated to 37° C. and adjusted to pH 7.4 before use. 5 μM test compound solutions (final dimethylsulfoxide concentration 0.5%) were prepared in isotonic phosphate buffer containing rat or human plasma. The plasma-containing solution was on one side of the membrane, and the plasma-free on the other. Incubations were performed overnight (10% plasma assay), or for 2 hours (100% plasma assay) in triplicate. The cells were mounted in a drive unit that rotated the cells and ensured a uniform equilibrium was obtained. The equilibrium was temperature controlled by the drive unit being immersed in a water bath at 37° C. At the end of the equilibration time, the cells were emptied. The solutions for each batch of compounds were combined into two groups (plasma-free and plasma-containing) then cassette analysed by LC-MS/MS using two sets of calibration standards for plasma-free (7 points) and plasma-containing solutions (6 points). The percentage of protein bound compound was calculated as follows: [formula] PC=sample concentration in protein containing side; PF=sample concentration in protein free side;

[3] = target: T2, soluble, human recombinant NEP (Homo sapiens, UniProt P08473); assay: In-vitro investigation of the NEP inhibitory action (fluorescence-quenched Big-ET-1 analogue, HPLC); format: biochemical
T2 construct: soluble, human recombinant NEP; purchased Prof; Crine, University of Montreal, Canada
T2 sequence (P08473 52-750 limits assumed): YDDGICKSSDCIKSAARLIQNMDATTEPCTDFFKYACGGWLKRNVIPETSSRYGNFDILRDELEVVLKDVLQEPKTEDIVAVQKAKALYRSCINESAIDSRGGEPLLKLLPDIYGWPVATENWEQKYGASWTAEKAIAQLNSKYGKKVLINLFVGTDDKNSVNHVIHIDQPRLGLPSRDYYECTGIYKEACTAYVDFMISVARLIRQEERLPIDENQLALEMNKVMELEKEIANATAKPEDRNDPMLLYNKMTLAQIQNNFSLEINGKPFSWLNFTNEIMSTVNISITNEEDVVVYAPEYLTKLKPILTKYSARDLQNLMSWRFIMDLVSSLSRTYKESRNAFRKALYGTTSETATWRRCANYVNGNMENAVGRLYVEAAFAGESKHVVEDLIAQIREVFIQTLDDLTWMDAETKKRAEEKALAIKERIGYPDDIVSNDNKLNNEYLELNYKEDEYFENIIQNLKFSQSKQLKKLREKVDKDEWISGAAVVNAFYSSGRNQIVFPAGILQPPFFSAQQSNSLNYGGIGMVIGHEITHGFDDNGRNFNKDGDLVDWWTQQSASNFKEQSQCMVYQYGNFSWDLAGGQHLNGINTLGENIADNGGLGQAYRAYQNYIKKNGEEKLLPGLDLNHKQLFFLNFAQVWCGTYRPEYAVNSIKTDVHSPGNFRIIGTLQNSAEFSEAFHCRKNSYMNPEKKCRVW
How it was run: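 Enzyme preincubated with test substance 15 min at 37° C, then incubated with fluorescence-quenched Mca peptide substrate 60 min at 37° C and stopped by heating to 95° C. Cleaved and intact peptide separated by reversed-phase HPLC; unquenched Mca peak area (ex 328/em 393 nm) gave % inhibition versus no-compound control, duplicates, IC50 derived.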

[4] = Plasma protein binding, equilibrium dialysis, human plasma; format: in vitro ADME; details: human plasma (10% for routine testing), 37° C., pH 7.4, 10% plasma (100% for low binders), read-out: % bound (human plasma) (converted)
Description: as §1

IC50 [1] [nM]	fraction unbound at 5 μM [2]	IC50 [3] [nM]	fraction unbound at 5 μM [4]	Structure (SMILES)
7.8	0.31	17.9	0.58	CC(C)NC(=O)CC(CC1(C(=O)N[C@H]2CCc3ccccc3N(CC(=O)O)C2=O)CCCC1)C(=O)O (stereo in doubt) [Example 3, (2″rel1″)-2-{[(3S)-1-({[1-(carboxymethyl)-2-oxo-2,3,4,5-tetrahydro-1H-1-benzazepin-3-yl]amino}-carbonyl)cyclopentyl]methyl}-4-(isopropylamino)-4-oxobutyric acid]
5	0.83	9	~1	CN(C)CCCN(C)C(=O)CC(CC1(C(=O)NC2CCc3ccccc3N(CC(=O)O)C2=O)CCCC1)C(=O)O (stereo not drawn) [Example 64, 2-[(1-{[1-(carboxymethyl)-2-oxo-2,3,4,5-tetrahydro-1H-1-benzazepin-3-yl]carbamoyl}cyclopentyl)methyl]-4-{[3-(dimethylamino)propyl](methyl)amino}-4-oxobutanoic acid]
2	0.36	4	0.34	CCN(CCCCN)C(=O)CC(CC1(C(=O)NC2CCc3ccccc3N(CC(=O)O)C2=O)CCCC1)C(=O)O [Example 81, (2″rel1″)-4-[(4-aminobutyl)(ethyl)amino]-2-{[1-({[(3S)-1-(carboxymethyl)-2-oxo-2,3,4,5-tetrahydro-1H-1-benzazepin-3-yl]amino}carbonyl)cyclopentyl]methyl}-4-oxobutanoic acid]
